# According to PubChem BioAssay (NCI):
#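 Five compound concentrations were applied to cells in 96-well plates for 48 hours; endpoints were derived by simple linear interpolation of the resulting dose-response curve. GI50 marks 50% less growth. TGI is the concentration that stops growth completely.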
# Experiments:
# Experiment in all cases: NCI anticancer screen, dose series, 48 h
# NCI-H460 lung = test system: NCI-H460 lung
# SK-MEL-2 melanoma = test system: SK-MEL-2 melanoma
# T-47D breast = test system: T-47D breast
# SK-MEL-5 melanoma = test system: SK-MEL-5 melanoma
# CCRF-CEM leukemia = test system: CCRF-CEM leukemia
# NCI-H23 lung = test system: NCI-H23 lung
# M14 melanoma = test system: M14 melanoma
# U251 CNS = test system: U251 CNS
# IGROV1 ovarian = test system: IGROV1 ovarian
# SK-OV-3 ovarian = test system: SK-OV-3 ovarian
# ACHN renal = test system: ACHN renal
# RXF 393 renal = test system: RXF 393 renal
# COLO 205 colon = test system: COLO 205 colon
# MOLT-4 leukemia = test system: MOLT-4 leukemia
# OVCAR-4 ovarian = test system: OVCAR-4 ovarian
# 786-0 renal = test system: 786-0 renal
# UACC-62 melanoma = test system: UACC-62 melanoma
# HL-60(TB) leukemia = test system: HL-60(TB) leukemia
# RPMI-8226 leukemia = test system: RPMI-8226 leukemia
# SW-620 colon = test system: SW-620 colon
# CAKI-1 renal = test system: CAKI-1 renal
# K-562 leukemia = test system: K-562 leukemia
# MDA-MB-435 = test system: MDA-MB-435
# MALME-3M melanoma = test system: MALME-3M melanoma
# SF-268 CNS = test system: SF-268 CNS
# NCI/ADR-RES ovarian = test system: NCI/ADR-RES ovarian
# HOP-62 NSCLC = test system: HOP-62 NSCLC
# MCF7 breast = test system: MCF7 breast
# A549 NSCLC = test system: A549 NSCLC
# SNB-75 CNS = test system: SNB-75 CNS
# SK-MEL-28 melanoma = test system: SK-MEL-28 melanoma
# OVCAR-5 ovarian = test system: OVCAR-5 ovarian
# SR leukemia = test system: SR leukemia
# DU-145 prostate = test system: DU-145 prostate
# HS 578T breast = test system: HS 578T breast
# MDA-MB-231 breast = test system: MDA-MB-231 breast
# SF-539 CNS = test system: SF-539 CNS
# NCI-H226 lung = test system: NCI-H226 lung
# A498 renal = test system: A498 renal
# EKVX NSCLC = test system: EKVX NSCLC
# OVCAR-3 ovarian = test system: OVCAR-3 ovarian
# HCC-2998 colon = test system: HCC-2998 colon
# NCI-H522 lung = test system: NCI-H522 lung
# UO-31 renal = test system: UO-31 renal
# PC-3 prostate = test system: PC-3 prostate
# UACC-257 melanoma = test system: UACC-257 melanoma
# LOX IMVI melanoma = test system: LOX IMVI melanoma
# HT29 colon = test system: HT29 colon
# HOP-92 NSCLC = test system: HOP-92 NSCLC
# SN12C renal = test system: SN12C renal
# HCT-116 colon = test system: HCT-116 colon
# HCT-15 colon = test system: HCT-15 colon
# BT-549 breast = test system: BT-549 breast
# KM12 colon = test system: KM12 colon
# SF-295 CNS = test system: SF-295 CNS
# SNB-19 CNS = test system: SNB-19 CNS
smiles,measurement,setting,value
O=CC(O)C(O)C(O)C(O)COP(=O)(O)Cc1ccccc1 (stereo not drawn),TGI,NCI-H460 lung,> 10000 nM
same,TGI,SK-MEL-2 melanoma,> 10000 nM
same,TGI,T-47D breast,> 10000 nM
same,TGI,SK-MEL-5 melanoma,> 10000 nM
same,TGI,CCRF-CEM leukemia,> 10000 nM
same,TGI,NCI-H23 lung,> 10000 nM
same,TGI,M14 melanoma,> 10000 nM
same,TGI,U251 CNS,> 10000 nM
same,TGI,IGROV1 ovarian,> 10000 nM
same,TGI,SK-OV-3 ovarian,> 10000 nM
same,TGI,ACHN renal,> 10000 nM
same,TGI,RXF 393 renal,> 10000 nM
same,TGI,COLO 205 colon,> 10000 nM
same,TGI,MOLT-4 leukemia,> 10000 nM
same,TGI,OVCAR-4 ovarian,> 10000 nM
same,TGI,786-0 renal,> 10000 nM
same,TGI,UACC-62 melanoma,> 10000 nM
same,TGI,HL-60(TB) leukemia,> 10000 nM
same,TGI,RPMI-8226 leukemia,> 10000 nM
same,TGI,SW-620 colon,> 10000 nM
same,TGI,CAKI-1 renal,> 10000 nM
same,TGI,K-562 leukemia,> 10000 nM
same,TGI,MDA-MB-435,> 10000 nM
same,TGI,MALME-3M melanoma,> 10000 nM
same,TGI,SF-268 CNS,> 10000 nM
same,TGI,NCI/ADR-RES ovarian,> 10000 nM
same,TGI,HOP-62 NSCLC,> 10000 nM
same,TGI,MCF7 breast,> 10000 nM
same,TGI,A549 NSCLC,> 10000 nM
same,TGI,SNB-75 CNS,> 10000 nM
same,TGI,SK-MEL-28 melanoma,> 10000 nM
same,TGI,OVCAR-5 ovarian,> 10000 nM
same,TGI,SR leukemia,> 10000 nM
O=C(Nc1ccc2ncnc(Nc3ccc(Oc4cccc(F)c4)c(Cl)c3)c2c1)c1ccc(CNCCO)cc1,GI50,DU-145 prostate,1800 nM
same,TGI,DU-145 prostate,3440 nM
same,GI50,SK-OV-3 ovarian,1140 nM
same,TGI,SK-OV-3 ovarian,2530 nM
same,GI50,ACHN renal,1590 nM
same,TGI,ACHN renal,3050 nM
same,GI50,COLO 205 colon,1800 nM
same,TGI,COLO 205 colon,3560 nM
same,GI50,HS 578T breast,1640 nM
same,TGI,HS 578T breast,4420 nM
same,GI50,OVCAR-4 ovarian,1880 nM
same,TGI,OVCAR-4 ovarian,4810 nM
same,GI50,MDA-MB-231 breast,1730 nM
same,TGI,MDA-MB-231 breast,3270 nM
same,GI50,UACC-62 melanoma,1700 nM
same,TGI,UACC-62 melanoma,3070 nM
same,GI50,HL-60(TB) leukemia,2060 nM
same,TGI,HL-60(TB) leukemia,4740 nM
same,GI50,SW-620 colon,1830 nM
same,TGI,SW-620 colon,3520 nM
same,GI50,MALME-3M melanoma,1520 nM
same,TGI,MALME-3M melanoma,2930 nM
same,GI50,SF-539 CNS,1620 nM
same,TGI,SF-539 CNS,3010 nM
same,GI50,NCI/ADR-RES ovarian,7200 nM
same,TGI,NCI/ADR-RES ovarian,36900 nM
same,GI50,SK-MEL-28 melanoma,1690 nM
same,TGI,SK-MEL-28 melanoma,3080 nM
same,GI50,OVCAR-5 ovarian,1630 nM
same,TGI,OVCAR-5 ovarian,3170 nM
same,GI50,NCI-H226 lung,19700 nM
same,TGI,NCI-H226 lung,56100 nM
same,GI50,A498 renal,2580 nM
same,TGI,A498 renal,23400 nM
Cc1cccc2c(=O)c3c(sc12)c(NCCNCCO)nc1ccccc13,GI50,NCI-H460 lung,1190 nM
same,TGI,NCI-H460 lung,2640 nM
same,GI50,SK-MEL-2 melanoma,1780 nM
same,TGI,SK-MEL-2 melanoma,3440 nM
same,GI50,T-47D breast,1330 nM
same,TGI,T-47D breast,3130 nM
same,GI50,DU-145 prostate,1680 nM
same,TGI,DU-145 prostate,3120 nM
same,GI50,EKVX NSCLC,1500 nM
same,TGI,EKVX NSCLC,2920 nM
same,GI50,SK-MEL-5 melanoma,1650 nM
same,TGI,SK-MEL-5 melanoma,3080 nM
same,GI50,OVCAR-3 ovarian,1550 nM
same,TGI,OVCAR-3 ovarian,2990 nM
same,GI50,CCRF-CEM leukemia,1850 nM
same,TGI,CCRF-CEM leukemia,3730 nM
same,GI50,NCI-H23 lung,1580 nM
same,TGI,NCI-H23 lung,3040 nM
same,GI50,M14 melanoma,1680 nM
same,TGI,M14 melanoma,3370 nM
same,GI50,U251 CNS,1560 nM
same,TGI,U251 CNS,3090 nM
same,GI50,HCC-2998 colon,1550 nM
same,TGI,HCC-2998 colon,3110 nM
same,GI50,IGROV1 ovarian,1190 nM
same,TGI,IGROV1 ovarian,2650 nM
same,GI50,NCI-H522 lung,1630 nM
same,TGI,NCI-H522 lung,3540 nM
same,GI50,ACHN renal,1500 nM
same,TGI,ACHN renal,2830 nM
same,GI50,UO-31 renal,1090 nM
same,TGI,UO-31 renal,2340 nM
same,GI50,RXF 393 renal,1430 nM
same,TGI,RXF 393 renal,2770 nM
same,GI50,COLO 205 colon,1560 nM
same,TGI,COLO 205 colon,3350 nM
same,GI50,PC-3 prostate,1300 nM
same,TGI,PC-3 prostate,2730 nM
same,GI50,HS 578T breast,1620 nM
same,TGI,HS 578T breast,3740 nM
same,GI50,MOLT-4 leukemia,1530 nM
same,TGI,MOLT-4 leukemia,3210 nM
same,GI50,OVCAR-4 ovarian,1750 nM
same,TGI,OVCAR-4 ovarian,3480 nM
same,GI50,786-0 renal,1830 nM
same,TGI,786-0 renal,3510 nM
same,GI50,MDA-MB-231 breast,1230 nM
same,TGI,MDA-MB-231 breast,2620 nM
same,GI50,UACC-62 melanoma,1630 nM
same,TGI,UACC-62 melanoma,3070 nM
same,GI50,UACC-257 melanoma,1860 nM
same,TGI,UACC-257 melanoma,3790 nM
same,GI50,HL-60(TB) leukemia,1890 nM
same,TGI,HL-60(TB) leukemia,3590 nM
same,GI50,RPMI-8226 leukemia,1810 nM
same,TGI,RPMI-8226 leukemia,3880 nM
same,GI50,SW-620 colon,1450 nM
same,TGI,SW-620 colon,3010 nM
same,GI50,CAKI-1 renal,1250 nM
same,TGI,CAKI-1 renal,2560 nM
same,GI50,LOX IMVI melanoma,1500 nM
same,TGI,LOX IMVI melanoma,2920 nM
same,GI50,HT29 colon,1400 nM
same,TGI,HT29 colon,3130 nM
same,GI50,MDA-MB-435,1750 nM
same,TGI,MDA-MB-435,3250 nM
same,GI50,MALME-3M melanoma,1650 nM
same,TGI,MALME-3M melanoma,3180 nM
same,GI50,SF-268 CNS,1540 nM
same,TGI,SF-268 CNS,3150 nM
same,GI50,HOP-92 NSCLC,1170 nM
same,TGI,HOP-92 NSCLC,3050 nM
same,GI50,SF-539 CNS,1720 nM
same,TGI,SF-539 CNS,3120 nM
same,GI50,HOP-62 NSCLC,1280 nM
same,TGI,HOP-62 NSCLC,2870 nM
same,GI50,SN12C renal,1540 nM
same,TGI,SN12C renal,3050 nM
same,GI50,HCT-116 colon,1350 nM
same,TGI,HCT-116 colon,2720 nM
same,GI50,MCF7 breast,1240 nM
same,TGI,MCF7 breast,2720 nM
same,GI50,A549 NSCLC,1470 nM
same,TGI,A549 NSCLC,3190 nM
same,GI50,SNB-75 CNS,1150 nM
same,TGI,SNB-75 CNS,2430 nM
same,GI50,SK-MEL-28 melanoma,1790 nM
same,TGI,SK-MEL-28 melanoma,3310 nM
same,GI50,OVCAR-5 ovarian,1610 nM
same,TGI,OVCAR-5 ovarian,3060 nM
same,GI50,HCT-15 colon,1460 nM
same,TGI,HCT-15 colon,2890 nM
same,GI50,BT-549 breast,1580 nM
same,TGI,BT-549 breast,3350 nM
same,GI50,KM12 colon,1640 nM
same,TGI,KM12 colon,3190 nM
same,GI50,NCI-H226 lung,1560 nM
same,TGI,NCI-H226 lung,3320 nM
same,GI50,A498 renal,1670 nM
same,TGI,A498 renal,3700 nM
same,GI50,SF-295 CNS,1730 nM
same,TGI,SF-295 CNS,3210 nM
Nc1nc(Cl)c(N=Nc2ccc(Cl)cc2)c(NCC2(CO)CC2)n1,GI50,NCI-H522 lung,47500 nM
same,GI50,SK-OV-3 ovarian,14200 nM
same,GI50,ACHN renal,411 nM
same,GI50,RXF 393 renal,33500 nM
same,GI50,HS 578T breast,12600 nM
same,GI50,MDA-MB-231 breast,11100 nM
same,GI50,SNB-19 CNS,50000 nM
same,GI50,CAKI-1 renal,5060 nM
same,GI50,SF-268 CNS,40900 nM
same,GI50,HOP-92 NSCLC,1080 nM
same,TGI,HOP-92 NSCLC,38100 nM
same,GI50,HOP-62 NSCLC,28700 nM
same,GI50,SNB-75 CNS,10300 nM
same,GI50,A498 renal,90900 nM
